# Reference: article PMC11754443, “Synthesis, H2S releasing properties, antiviral and antioxidant activities and acute cardiac effects of nucleoside 5′-dithioacetates” (Scientific Reports, 2025)
# Where two headings read alike, the source gives them in different places.
# Key:
# [1] = set-up: method as in PMID 26809888; conditions: administered at the end of sustained ischemia; cited from earlier work
# [2] = system: perivascular adipose tissue; set-up: method as in PMID 26120822; conditions: obese rats, through H2S release; cited from earlier work
# [3] = DPPH radical scavenging assay; conditions: for DPPH inhibition ratio after 30 min incubation / DPPH inhibition ratio immediately: 2 mM; for IC50: without extract; for DPPH activity lower than that of ascorbic acid: from IC50 values, relative to ascorbic acid
# Description: DPPH is a stable free radical with a deep violet color that changes to yellow when neutralized by an electron or hydrogen radical, indicating the antioxidant activity of the sample being tested. The DPPH radical scavenging abilities were investigated following the method outlined by Shimamura et al., with minor adjustments. In this study, a cardiovascular tissue homogenate was used to induce H2S release from the dithioacetate derivatives 22 and 24, as well as GYY4137. A mixed solution of 1.2 mL of methanol and 800 µL of 0.1 M Tris-HCl buffer (pH 7.4) served as the blank. 1 mL DPPH solution was added to a mixture of methanol and 0.1 M Tris-HCl buffer (200:800 µL). After mixing, the absorbance was recorded at 517 nm on a UV-1600 PC VWR spectrophotometer (VWR, China). To avoid any potential interference from the heart extract in the assay, we measured the absorbance after adding different volumes of the extract into the mixture. These measurements were taken both immediately and after 30 min of incubation.
# The DPPH antioxidant assay was performed according to the following procedures. 1 mL of DPPH solution was added to a mixture of 200 µL of the methanolic sample solution and 800 µL of 0.1 M Tris-HCl buffer (pH = 7.4). For the groups containing the extract, the extract was introduced into a mixture of the sample solution in PBS buffer, 0.1 M Tris-HCl buffer, and DPPH (200:800:1000 µL). Considering that GYY4137 produces H2S upon hydrolysis, it was introduced last following the addition of the extract into a solution of PBS buffer, 0.1 M Tris-HCl buffer, and DPPH maintained at the same ratio. The same protocol was employed for NaHS without the addition of the extract. After mixing, the absorbance was promptly recorded, after which the solutions were incubated in the dark at room temperature for 30 min before the absorbance was measured again. The test samples were prepared and assayed at varying concentrations using a 2-fold serial dilution method, starting from a concentration of 2 mM. Each investigation was performed in triplicate, and the antioxidant activity was based on the absorbance recorded at 517 nm. Ascorbic acid (AA), GYY4137, and NaHS served as positive controls, while the unmodified nucleosides were used as reference compounds.
# The inhibition ratio (IR) was calculated as follows: [drawing 1] where Ac is the absorbance when methanol is added instead of the sample and As is the absorbance when the testing sample solution is added.
# The antioxidant capacity was expressed as the concentration needed to achieve a 50% inhibition of the free radical (IC50). The IC50 values were calculated by plotting the percent of inhibition as a function of sample concentration.
# [4] = ABTS radical cation decolorization assay; conditions: 0.1 mM, compared with parent dithioacetates 22 and 24
# Description: The ABTS decolorization assay was carried out as described by Szoke et al.[54] Briefly, the method is based on the scavenging of (2,2′-azinobis-(3-ethylbenzothiazoline-6-sulfonic acid) ABTS^•+ radical cation. The decolorization caused by the compound is compared to the decolorization induced by Trolox (6-hydroxy-2,5,7,8-tetramethylchroman-2-carboxylic acid), and expressed as Trolox equivalent antioxidant capacity (TEAC) value. TEAC values were expressed as Trolox equivalents calculated from (Ai − Af)antioxidant/(Ai − Af) Trolox at 0.1 mM concentrations. Briefly, a total of 10 µL sample, 20 µL of Myoglobin Working Solution, and 150 µL of ABTS Substrate Working Solution were mixed and incubated for 5 min at room temperature. At the end of incubation […] of Stop Solution was added and endpoint absorbance at 405 nm was read. All experiments were performed in triplicates and repeated three times.
# [5] = system: anaesthetized Sprague-Dawley rats; experiment: Cardiac effects by ECG and echocardiography in anaesthetized rats; format: in vivo, rat; conditions: 2 mg/kg i.v.
# Description: The animals received humane care, and all experimental procedures were carried out in accordance with the “Principles of Laboratory Animal Care” by EU Directive 2010/63/EU. All experimental protocols were approved by the local Ethics Committee of University of Debrecen (25/2023/DEMÁB). Animal experiments are reported in compliance with the ARRIVE guidelines. Anesthesia was carried out using ketamine/xylazine mixture (100/10 mg/kg, i.m.). The chest was shaved and the animal was placed onto a heated pad (VisualSonics SR200, VisualSonics, Amsterdam, The Netherlands). The lateral tail vein was cannulated using a heparinized 26G i.v. cannula (BD Neoflon, BD Medical, NJ, USA). B-mode and M-mode echocardiography was carried out before and 30 s after the intravenous administration of the compounds. A high-resolution ultrasound machine (Vevo 3100 Imaging Station, VisualSonics, Amsterdam, The Netherlands) equipped with a […] transducer (MX201) was used for assessing cardiac parameters. Traces were obtained from the parasternal long axis view (PLAX). A B-mode video and an M-mode trace was recorded, and the following parameters were then offline analysed: left ventricle (LV) end-systolic and end-diastolic volume (LVESV, LVEDV, respectively) fractional shortening (FS) and ejection fraction (EF) and stroke volume (SV).
# A 3-channel ECG was continuously recorded during the experiments (Vevo monitor ECG, VisualSonics, Amsterdam, The Netherlands). On the recorded ECG data, RR, PR and QT intervals, and heart rate (HR) were determined before and 30 s after the administration of the drugs, and 6 consecutive cardiac cycles were averaged for each parameter.
# Statistical analyses for the in vivo studies were carried out using the GraphPad Prism 9.0 software (GraphPad Software, San Diego, CA, USA). Data distribution was assessed by the Shapiro-Wilk normality test, and paired t-test were used to determine the differences between the baseline (drug free) and endpoint (treated) parameters in each group. A multiple comparison was also carried out between the treatment groups by using one-way ANOVA with Tukey multiple comparison test. Data was shown as mean ± SD, and differences with p < 0.05 were considered significant.
# [6] = system: SARS-CoV-2 (strain hCoV-19/Czech Republic/NRL_6632_2/2020); experiment: Anti-SARS-CoV-2 cytopathic-effect-based assay in Calu-3 cells (CellTiter-Glo); format: cell-based; conditions: Severe acute respiratory syndrome coronavirus 2, compound added 2 h after infection, MOI 0.3, read after two days, read-out: EC50 ± SE, anti-SARS-CoV-2 activity
# [7] = Cytotoxicity in Calu-3 cells (CellTiter-Glo); format: cell-based, human; conditions: human
# Description: Cytotoxicity was evaluated by incubating the same two-fold serial dilutions of each compound with Calu-3 cells as above in the absence of the virus. Following two days incubation at 37 °C in 5% CO2, the cell viability was determined as above. The compound concentrations resulting in 50% reduction of cell viability (CC50) were calculated from plots of percentage of luminescence versus log10 drug concentration as above. Remdesivir was used as control in both assays.
# SARS-CoV-2 = format: cell-based; conditions: medium of Calu-3 cells infected 2 days at the highest compound concentration, plaque assay in Vero E6 cells
# [8] = after 30 min incubation, read-out: DPPH IC50 30 min
# [9] = measured immediately, read-out: DPPH IC50 immediately
# [10] = anaesthetized SD rats, 30 s after administration, mean ± SD
SMILES,effect on anti-contractile effects of perivascular adipose tissue [2],DPPH inhibition ratio after 30 min incubation ([3]; after 30 min incubation) [%],DPPH inhibition ratio immediately [3],"IC50 [3, 8] [µM]",DPPH activity lower than that of ascorbic acid [3] [times],"IC50 [3, 9] [µM]","ABTS antioxidant activity (Trolox equivalents), in words [4]",other results
NC(=S)c1ccc(OC[C@H]2O[C@@H](n3cnc4c(N)ncnc43)[C@H](O)[C@@H]2O)cc1 [Compound 1],–,–,–,–,–,–,–,effect on infarct size [1]: significantly reduced infarct size
Nc1ncnc2c1ncn2[C@@H]1O[C@H](COP(O)(O)=S)[C@@H](O)[C@H]1O [Compound 2],restore the anti-contractile effects of perivascular adipose tissue in obese rats,–,–,–,–,–,–,–
Nc1nc2c(ncn2[C@@H]2O[C@H](COP(O)(O)=S)[C@@H](O)[C@H]2O)c(=O)[nH]1 [Compound 3],restore the anti-contractile effects of perivascular adipose tissue in obese rats,–,–,–,–,–,–,–
"O=c1ccn([C@@H]2O[C@H](CS)[C@@H](O)[C@H]2O)c(=O)[nH]1 [Compound 32, 5′-Thiouridine]",–,90,70–80%,570,10,710,higher antioxidant activity than the parent dithioacetate derivatives,–
"Nc1ncnc2c1ncn2[C@@H]1O[C@H](CS)[C@@H](O)[C@H]1O [Compound 34, 5′-Deoxy-5′-thioadenosine]",–,90,70–80%,580,10,720,higher antioxidant activity than the parent dithioacetate derivatives,"Ejection Fraction [5, 10]: 82.14±5.877%; Heart rate [5, 10]: 97.25±24.66 bpm; PR interval [5, 10]: 49.43 ± 6.973 ms; QT interval [5, 10]: 158.3 ± 35.8 ms; Stroke Volume [5, 10]: 335.6 ± 68.82 µL; duration of negative chronotropic action compared with adenosine ([5]; anaesthetized rats): their duration of action was longer; heart block (in words) ([5]; anaesthetized rats): None of the new compounds (22, 24, and 34) induced complete heart block or pauses"
"CCC(CC)COC(=O)[C@H](C)N[P@](=O)(OC[C@H]1O[C@@](C#N)(c2ccc3c(N)ncnn23)[C@H](O)[C@@H]1O)Oc1ccccc1 [Remdesivir, reference compound]",–,–,–,–,–,–,–,EC50 [6]: 0.5 ± 0.26 µM; CC50 at 2 days [7]: > 10 µM; SARS-CoV-2 titer reduction (SARS-CoV-2): 7.1 log10 PFU/mL
